Test results reported in ChEMBL document CHEMBL1201862, “PubChem BioAssay data set” (2004).
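Tested at 5 concentrations; 48 h exposure; 96-well plates; endpoints linearly interpolated, else capped at highest concentration. At the GI50, growth is halved.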 The source made the active and inactive calls. Cut-off read from the data, not from the text of the source: active = GI50 up to about 1.1 µM and inactive = higher. Starred links: 1 amine or outer side, 2 acyl side, 3 side chain; linkers in the order of their positions; H or OH if unused. Non-standard residues stand in square brackets, D forms with d. Residues, ends and D or L forms follow the SMILES beside them. *: point of attachment. X47 = CCC(=O)CC1CC(C)CC(C(=O)[*:2])N1[*:1]; X46 = CCCCCCCCC(C)C(=O)*; Aib = CC(C)(N)C(=O)O; X48 = CC(CN(C)CCO)N*

How the values were obtained:
Assay in all cases: NCI tumour cell line growth inhibition, 48 h
A549 = tested on: A549
ACHN = tested on: ACHN
CCRF-CEM = tested on: CCRF-CEM
COLO 205 = tested on: COLO 205
HL-60 = tested on: HL-60
HOP-62 = tested on: HOP-62
IGROV-1 = tested on: IGROV-1
LOX IMVI = tested on: LOX IMVI
Malme-3M = tested on: Malme-3M
NCI-H226 = tested on: NCI-H226
NCI-H460 = tested on: NCI-H460
NCI-H522 = tested on: NCI-H522
OVCAR-4 = tested on: OVCAR-4
RPMI-8226 = tested on: RPMI-8226
RXF 393 = tested on: RXF 393
SK-MEL-5 = tested on: SK-MEL-5
SNB-19 = tested on: SNB-19
T47D = tested on: T47D
TK-10 = tested on: TK-10
UACC-257 = tested on: UACC-257

Row | Structure (SMILES) | GI50 (A549) | GI50 (ACHN) | GI50 (CCRF-CEM) | GI50 (COLO 205) | GI50 (HL-60) | GI50 (HOP-62) | GI50 (IGROV-1) | GI50 (LOX IMVI) | GI50 (Malme-3M) | GI50 (NCI-H226) | GI50 (NCI-H460) | GI50 (NCI-H522) | GI50 (OVCAR-4) | GI50 (RPMI-8226) | GI50 (RXF 393) | GI50 (SK-MEL-5) | GI50 (SNB-19) | GI50 (T47D) | GI50 (TK-10) | GI50 (UACC-257)
1 | Nc1nc(N)nc(CC(=O)O)n1 | > 100 µM (inactive) | > 100 µM (inactive) | > 100 µM (inactive) | > 100 µM (inactive) | > 100 µM (inactive) | > 100 µM (inactive) | > 100 µM (inactive) | > 100 µM (inactive) | > 100 µM (inactive) | > 100 µM (inactive) | > 100 µM (inactive) | > 100 µM (inactive) | > 100 µM (inactive) | > 100 µM (inactive) | > 100 µM (inactive) | > 100 µM (inactive) | > 100 µM (inactive) | > 100 µM (inactive) | > 100 µM (inactive) | > 100 µM (inactive)
2 | CCCCCCCCCCCCCCCCCCNc1ccn(C2OC(COP(=O)(O)OCC3OC(n4ccc(N)nc4=O)C(O)C3O)C(O)C2O)c(=O)n1 (stereo not given) | 8.59 µM (inactive) | 29.9 µM (inactive) | 16.1 µM (inactive) | 47.3 µM (inactive) | 10.2 µM (inactive) | 29.6 µM (inactive) | 30.3 µM (inactive) | 16.5 µM (inactive) | > 50 µM (inactive) | > 100 µM (inactive) | 14.3 µM (inactive) | > 37.8 µM (inactive) | > 72.8 µM (inactive) | > 100 µM (inactive) | > 100 µM (inactive) | > 100 µM (inactive) | 39.7 µM (inactive) | > 78.3 µM (inactive) | > 100 µM (inactive) | > 100 µM (inactive)
3 | C=CC(C)CCC(C/C=C(\C)CCCC(C)C)C(=C)CCCC(C)C (stereo not given) | > 100 µM (inactive) | > 100 µM (inactive) | > 100 µM (inactive) | > 100 µM (inactive) | > 100 µM (inactive) | > 100 µM (inactive) | > 100 µM (inactive) | > 100 µM (inactive) | > 100 µM (inactive) | > 100 µM (inactive) | > 100 µM (inactive) | > 100 µM (inactive) | > 100 µM (inactive) | > 100 µM (inactive) | > 100 µM (inactive) | > 100 µM (inactive) | > 100 µM (inactive) | > 100 µM (inactive) | > 100 µM (inactive) | > 100 µM (inactive)
4 | C/C(=N/NC(=S)Nc1ccc([N+](=O)[O-])cc1)c1cccc(/C(C)=N\NC(=S)Nc2ccc([N+](=O)[O-])cc2)n1 | 0.594 µM (active) | 0.126 µM (active) | 0.318 µM (active) | 0.218 µM (active) | 0.265 µM (active) | 0.752 µM (active) | 0.569 µM (active) | 0.313 µM (active) | 0.515 µM (active) | 0.193 µM (active) | 0.34 µM (active) | 0.628 µM (active) | 0.959 µM (active) | 0.491 µM (active) | 0.53 µM (active) | 0.353 µM (active) | 1.33 µM (inactive) | 2.16 µM (inactive) | 0.577 µM (active) | 1.09 µM (active)
5 | COc1ccc(/C=C/C(=N/NC(=O)N/N=C(/C=C/c2ccc(OC)cc2)C(C)(C)CN2CCCCC2)C(C)(C)CN2CCCCC2)cc1 | 1.86 µM (inactive) | 1.75 µM (inactive) | 1.27 µM (inactive) | 1.65 µM (inactive) | 1.5 µM (inactive) | 2.15 µM (inactive) | 2.27 µM (inactive) | 1.37 µM (inactive) | 1.92 µM (inactive) | 1.5 µM (inactive) | 1.65 µM (inactive) | 2.07 µM (inactive) | 1.88 µM (inactive) | 1.69 µM (inactive) | 1.35 µM (inactive) | 1.63 µM (inactive) | 2.61 µM (inactive) | 1.99 µM (inactive) | 2.01 µM (inactive) | 1.86 µM (inactive)
6 | CCCNC(=O)NNC(=O)c1c[nH]c2nc(C)ccc2c1=O | > 100 µM (inactive) | > 100 µM (inactive) | > 100 µM (inactive) | > 100 µM (inactive) | > 100 µM (inactive) | > 100 µM (inactive) | > 100 µM (inactive) | > 100 µM (inactive) | > 100 µM (inactive) | > 100 µM (inactive) | > 100 µM (inactive) | > 100 µM (inactive) | > 100 µM (inactive) | > 100 µM (inactive) | > 100 µM (inactive) | > 100 µM (inactive) | > 100 µM (inactive) | > 100 µM (inactive) | > 100 µM (inactive) | > 100 µM (inactive)
7 | COc1c(CCl)cc(-c2cc(=O)c3ccccc3s2)cc1CCl | 37.8 µM (inactive) | 45.2 µM (inactive) | 2.24 µM (inactive) | 3.33 µM (inactive) | 2.59 µM (inactive) | 10.6 µM (inactive) | 2.51 µM (inactive) | 1.86 µM (inactive) | 1.5 µM (inactive) | 30.1 µM (inactive) | 22.9 µM (inactive) | 1.99 µM (inactive) | 3.58 µM (inactive) | 3.77 µM (inactive) | 1.63 µM (inactive) | 39.4 µM (inactive) | 29.3 µM (inactive) | 1.66 µM (inactive) | 26.9 µM (inactive) | > 100 µM (inactive)
8 | CO[C@H]1C[C@H](O[C@H]2CC[C@@]3(C)[C@H](CC[C@@H]4[C@@H]3CC[C@]3(C)[C@@H](C5=CC(=O)OC5)CC[C@]43O)C2)O[C@H](C)[C@H]1O | < 0.01 µM (active) | < 0.01 µM (active) | < 0.01 µM (active) | 0.0695 µM (active) | < 0.01 µM (active) | < 0.01 µM (active) | < 0.01 µM (active) | < 0.01 µM (active) | < 0.01 µM (active) | < 0.0184 µM (active) | < 0.01 µM (active) | < 0.01 µM (active) | < 0.01 µM (active) | < 0.01 µM (active) | < 0.01 µM (active) | < 0.01 µM (active) | 0.0158 µM (active) | < 0.01 µM (active) | < 0.0246 µM (active) | < 0.0137 µM (active)
9 | CCCCCCCCC(C)C(=O)N1CCCC1C(=O)N1C(CC(=O)CC)CC(C)CC1C(=O)NC(C)C(=O)NC(C)(C)C(=O)NC(C)(C)C(=O)NC(C(=O)NC(C)C(=O)NC(C)(C)C(=O)NC(C)(C)C(=O)NC(C)CN(C)CCO)C(C)CC (stereo not given) (X46-P[X47]A[Aib][Aib]IA[Aib][Aib]-X48; configuration not given here) | < 0.01 µM (active) | 0.0368 µM (active) | < 0.0183 µM (active) | 0.0135 µM (active) | < 0.0106 µM (active) | 0.116 µM (active) | 0.221 µM (active) | 0.355 µM (active) | 1.26 µM (inactive) | 0.133 µM (active) | 0.0204 µM (active) | < 0.01 µM (active) | < 0.0118 µM (active) | < 0.0181 µM (active) | 1.85 µM (inactive) | < 0.0135 µM (active) | 0.214 µM (active) | < 0.01 µM (active) | 0.09 µM (active) | < 0.01 µM (active)
